Test results reported in patent US8536181B2, “Prolyl hydroxylase inhibitors” (Aerpio Therapeutics Inc., priority 2009, dated 2013).
Counter-ions that a name gives are not always drawn.

test system: not listed separately; assay: solubility of pharmaceutically acceptable salts in water; format: physicochemical; conditions: not given
Procedure: The formulator can determine the solubility of the pharmaceutically acceptable salts of the disclosed inhibitors by any method desirable. The following is a non-limiting example of a procedure for evaluating the solubility of a salt of a disclosed inhibitor. A suspension of tert-butyl-{1[-(4-chlorobenzyl)-3-hydroxy-2-oxo-1,2-dihydropyridin-4-yl]methyl}-piperazine-1-carboxylate methanesulfonate (26.6 mg) in distilled deionized water (3.0 mL) is sonicated for 20 min with water bath temperature under 25° C. The suspension is filtered to remove any insoluble salt. The clear filtrate solution (200 μL) is diluted with distilled deionized water (800 μL) and subjected to HPLC analysis. The following are results for the pharmaceutically acceptable salts outlined in Table VII above.

Compound	Solubility [mg/mL]
CC(C)(C)OC(=O)N1CCN(Cc2ccn(Cc3ccc(Cl)cc3)c(=O)c2O)CC1 [hydrochloride, tert-butyl-{[1-(4-chlorobenzyl)-3-hydroxy-2-oxo-1,2-dihydropyridin-4-yl]methyl}-piperazine-1-carboxylate]	5.9
tert-butyl-{[1-(4-chlorobenzyl)-3-hydroxy-2-oxo-1,2-dihydropyridin-4-yl]methyl}-piperazine-1-carboxylate [hydrogensulfonate]	13.2
CC(C)(C)OC(=O)N1CCN(Cc2ccn(Cc3ccc(Cl)cc3)c(=O)c2O)CC1 [p-toluenesulfonate, tert-butyl-{[1-(4-chlorobenzyl)-3-hydroxy-2-oxo-1,2-dihydropyridin-4-yl]methyl}-piperazine-1-carboxylate]	2.3

same assay, conditions: thermodynamic from solid; distilled deionized water, sonicated 20 min, under 25° C., HPLC

Compound	solubility at 20 min [µg/mL]
CC(C)(C)OC(=O)N1CCN(Cc2ccn(Cc3ccc(Cl)cc3)c(=O)c2O)CC1.CS(=O)(=O)O [methanesulfonate, tert-butyl-{1[-(4-chlorobenzyl)-3-hydroxy-2-oxo-1,2-dihydropyridin-4-yl]methyl}-piperazine-1-carboxylate methanesulfonate]	16600
CC(C)(C)OC(=O)N1CCN(Cc2ccn(Cc3ccc(Cl)cc3)c(=O)c2O)CC1 [Compound A41, tert-butyl 4-{[1-(4-chlorobenzyl)-3-hydroxy-2-oxo-1,2-dihydropyridin-4-yl]methyl}-piperazine-1-carboxylate]	~1

target: HIFPH2 (EGLN1) (Homo sapiens (Human), UniProt Q9GZT9); assay: EGLN-1 Activity Assay (MALDI-TOF MS); format: biochemical; conditions: recombinant human EGLN-1-179/426, HIF-1α peptide 556-574
Sequence (Q9GZT9 179-426): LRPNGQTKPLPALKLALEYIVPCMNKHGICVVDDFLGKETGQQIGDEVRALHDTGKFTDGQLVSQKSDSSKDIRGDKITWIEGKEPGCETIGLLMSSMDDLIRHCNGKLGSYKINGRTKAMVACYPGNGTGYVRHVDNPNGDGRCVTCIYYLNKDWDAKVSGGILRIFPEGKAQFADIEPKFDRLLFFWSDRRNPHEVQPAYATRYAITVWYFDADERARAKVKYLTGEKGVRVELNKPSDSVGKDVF
Procedure: The enzyme, quantity predetermined to hydroxylate 20% of substrate in 20 minutes, is added to start the reaction. Where inhibitors are used, compounds are prepared in dimethyl sulfoxide at 10-fold final assay concentration. After 20 minutes at room temperature, the reaction is stopped by transferring 10 μL of reaction mixture to 50 μL of a mass spectrometry matrix solution (α-cyano-4-hydroxycinnamic acid, 5 mg/mL in 50% acetonitrile/0.1% TFA, 5 mM NH4PO4). Two microliters of the mixture is spotted onto a MALDI-TOF MS target plate for analysis with an Applied Biosystems (Foster City, Calif.) 4700 Proteomics Analyzer MALDI-TOF MS equipped with a Nd:YAG laser (355 nm, 3 ns pulse width, 200 Hz repetition rate). Hydroxylated peptide product is identified from substrate by the gain of 16 Da. Data defined as percent conversion of substrate to product is analyzed in GraphPad Prism 4 to calculate IC50 values.

Compound	IC50 [µM]
O=c1c(O)cccn1Cc1ccc(Cl)cc1 [Compound F3, 1-(4-chlorobenzyl)-3-hydroxypyridin-2(1H)-one]	1.2
Cc1ccc(S(=O)(=O)n2ccc(CN3CCC(N4CCCCC4)CC3)c(O)c2=O)cc1 [Compound D10, 1-(4′-Methylbenzenesulfonyl)-3-hydroxy-4-[1,4]Bipiperidinyl-1′-ylmethylpyridin-2(1H)-one]	4.4
O=c1c(O)c(CN2CCN(c3ccc(Cl)nn3)CC2)ccn1Cc1ccccc1 [Compound B14, 1-Benzyl-3-hydroxy-4-[4-(6-chloropyridazin-3-yl)piperazin-1-ylmethyl]pyridin-2(1H)-one]	11
O=c1c(O)c(CNCCCn2ccnc2)ccn1Cc1ccccc1 [Compound C35]	12
CSCCNCc1ccn(Cc2ccccc2)c(=O)c1O [Compound C33]	16
CC(C)(C)OC(=O)N1CCN(Cc2ccn(Cc3ccc(Cl)cc3)c(=O)c2O)CC1 [Compound A41, tert-butyl 4-{[1-(4-chlorobenzyl)-3-hydroxy-2-oxo-1,2-dihydropyridin-4-yl]methyl}-piperazine-1-carboxylate]	14
O=C1NCCCCC1NCc1ccn(Cc2ccccc2)c(=O)c1O (centres unmarked) [Compound C19, 3-[(1-Benzyl-3-hydroxy-2-oxo-1,2-dihydropyridin-4-yl)methylamino]azepan-2-one]	12
O=c1c(O)cccn1Cc1cccc(Cl)c1 [Compound F2, 1-(3-chlorobenzyl)-3-hydroxypyridin-2(1H)-one]	5
CC(NCc1ccn(Cc2ccccc2)c(=O)c1O)c1ccccc1 (centres unmarked) [Compound C14, 1-Benzyl-3-hydroxy-4-[(1-phenylethylamino)methyl]pyridin-2(1H)-one]	12
1-Benzyl-3-hydroxy-4-(benzylaminomethyl)pyridin-2(1H)-one [Compound C1]	12
1-Benzyl-3-hydroxy-4-(4-benzylpiperidin-1-ylmethyl)pyridin-2(1H)-one [Compound B9]	17
COC[C@H]1CCCN1Cc1ccn(Cc2ccccc2)c(=O)c1O [Compound B5, 1-Benzyl-3-hydroxy-4-{[2-(methoxymethyl)pyrrolidin-1-yl]methyl}pyridin-2(1H)-one]	9
COc1ccccc1Cn1ccc(CN2CCCCCC2)c(O)c1=O [Compound A18]	18
CC1CCC(NCc2ccn(Cc3ccccc3)c(=O)c2O)CC1 (centres unmarked) [Compound C17, 1-Benzyl-3-hydroxy-4-[(4-methylcyclohexylamino)methyl]pyridin-2(1H)-one]	11
Cc1ccc(S(=O)(=O)n2ccc(CN3CCN(c4ccc(Cl)nn4)CC3)c(O)c2=O)cc1 [Compound D14, 1-(4′-Methylbenzenesulfonyl)-3-hydroxy-4-[4-(6-chloropyridazin-3-yl)piperazin-1-ylmethyl]pyridin-2(1H)-one]	12

test system: phosphoglycerate kinase (PGK) expression; assay: PGK expression in wild type murine embryonic fibroblasts; format: cell-based; conditions: 1 μM, 10 μM vs. wild type control (FIG. 12)

Compound	PGK expression
O=c1c(O)cccn1Cc1cccc(Cl)c1 [Compound F2, 1-(3-chlorobenzyl)-3-hydroxypyridin-2(1H)-one]	up regulation

test system: Staphylococcus aureus; assay: not given; conditions: dose-dependent; Zinkernagel et al. 2008; cited from earlier work

Compound	capacity of human phagocytes and whole blood to kill Staphylococcus aureus
NC(Cn1ccc(=O)c(O)c1)C(=O)O (centres unmarked) [mimosine]	boost

test system: S. aureus; assay: not given; conditions: Zinkernagel et al. 2008; cited from earlier work

Compound	lesion size
NC(Cn1ccc(=O)c(O)c1)C(=O)O (centres unmarked) [mimosine]	reduce the lesion size
